Reference: BindingDB's records for doi:10.1021/cb900134c (Saic-Frederick, 2009)

Molecular target: T1, Broad substrate specificity ATP-binding cassette transporter ABCG2 (Homo sapiens, UniProt Q9UNQ0)
T1 sequence (Q9UNQ0 whole entry): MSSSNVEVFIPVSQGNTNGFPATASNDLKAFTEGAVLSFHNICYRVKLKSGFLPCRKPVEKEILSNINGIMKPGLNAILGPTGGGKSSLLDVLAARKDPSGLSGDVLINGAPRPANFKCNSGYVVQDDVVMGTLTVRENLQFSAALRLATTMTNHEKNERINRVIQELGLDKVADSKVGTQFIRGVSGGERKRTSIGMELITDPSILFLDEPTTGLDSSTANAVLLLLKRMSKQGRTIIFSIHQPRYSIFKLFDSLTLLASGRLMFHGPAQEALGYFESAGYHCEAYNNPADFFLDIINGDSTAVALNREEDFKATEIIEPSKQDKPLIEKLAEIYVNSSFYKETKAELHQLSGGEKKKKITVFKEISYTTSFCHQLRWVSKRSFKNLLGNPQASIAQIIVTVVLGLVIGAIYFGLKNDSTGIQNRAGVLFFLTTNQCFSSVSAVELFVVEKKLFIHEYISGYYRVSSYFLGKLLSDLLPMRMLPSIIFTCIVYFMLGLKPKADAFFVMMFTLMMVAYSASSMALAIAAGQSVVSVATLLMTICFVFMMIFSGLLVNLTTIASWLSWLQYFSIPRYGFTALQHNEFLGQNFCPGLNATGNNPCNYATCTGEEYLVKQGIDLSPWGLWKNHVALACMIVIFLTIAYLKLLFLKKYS
Assay: Screening Assay for ABCG2 Inhibitors
Conditions: pH 7.4; 37 °C
Description: IC50 and maximal activities for inhibition of PhA accumulation were determined from dose-response curves. The accumulation of PhA, a fluorescent ABCG2 substrate, formed the basis of the assay for inhibitors of ABCG2 activity. NCI-H460/MX20 cells were transferred to black-walled, clear-bottomed 384-well polylysine-coated assay plates (Corning) and allowed to attach for several hours. PhA was added, immediately followed by compounds or vehicle (DMSO/PBS) control and incubated for an additional 18 h. After removal of medium and washing with PBS containing Ca2+ and Mg2+, fluorescence intensity was read on a Tecan Safire fluorescence plate reader in bottom read mode (395 nm excitation, 670 nm emission). Each plate had control wells containing Fumitremorgin C (FTC). Data were normalized to FTC and reported as the percentage of FTC fluorescence. Apparent IC50 values were calculated from dose-response data using SigmaPlot (SPSS, Inc., Chicago) 4-parameter logistic nonlinear regression analysis.

Structure (SMILES) | IC50 [µM]
CO/C(=C/c1ccc(O)cc1)C(=O)N/C=C/c1cc(Br)c(OC)c(Br)c1 [Botryllamide B, 2] | 11.2
CO/C(=C/c1ccc(O)cc1)C(=O)N/C=C/c1ccc(OC)c(Br)c1 [Botryllamide D, 4] | 16.4
CO/C(=C/c1ccc(O)cc1)C(=O)N/C=C/c1ccc(OC)cc1 [Botryllamide I, 9] | 41.4
COc1ccc2c3c([nH]c2c1)[C@H](C=C(C)C)N1C(=O)[C@@H]2CCCN2C(=O)[C@@H]1C3 [Fumitremorgin C] | 0.79
CO/C(=C\c1ccc(O)cc1)C(=O)N/C=C/c1cc(Br)c(OC)c(Br)c1 [US8470888, Botryllamide A] | 33.4
CO/C(=C\c1ccc(O)cc1)C(=O)N/C=C/c1ccc(O)cc1 [US8470888, Botryllamide F] | 16.7
CO/C(=C\c1ccc(O)cc1)C(=O)N/C=C/c1cc(Br)c(O)c(Br)c1 [US8470888, Botryllamide G] | 6.9
CO/C(=C\c1ccc(O)cc1)C(=O)N/C=C/c1ccc(OC)cc1 [US8470888, Botryllamide I] | 23.3
